According to patent publication US20230085307A1, “PYRIDAZINONE COMPOUND AND HERBICIDE” (NISSAN CHEMICAL CORPORATION, priority 2019, published 2023):

Key:
[1] = system: southern crabgrass; assay: Test Example 4: herbicidal effect by soil treatment (Table 19, symbol F); assay type: in vivo, southern crabgrass (Digitaria ciliaris); conditions: AAH 320 g/ha
Summary of the method: (§1)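 Emulsion of test compound, water-diluted to predetermined amount, sprayed on soil after sowing (seed depth ~1.5 cm, sterilized diluvial soil). Greenhouse, 25–30° C. Effect graded at three weeks post-spray.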

[2] = system: green foxtail; assay: Test Example 4: herbicidal effect by soil treatment (Table 19, symbol G); assay type: in vivo, green foxtail (Setaria viridis); conditions: AAH 320 g/ha
Summary of the method: as §1

[3] = system: Italian ryegrass; assay: Test Example 4: herbicidal effect by soil treatment (Table 19, symbol K); assay type: in vivo, Italian ryegrass (Lolium multiflorum); conditions: AAH 320 g/ha
Summary of the method: as §1

[4] = system: blackgrass; assay: Test Example 4: herbicidal effect by soil treatment (Table 19, symbol J); assay type: in vivo, blackgrass (Alopecurus myosuroides); conditions: AAH 320 g/ha
Summary of the method: as §1

[5] = system: redroot pigweed; assay: Test Example 4: herbicidal effect by soil treatment (Table 19, symbol N); assay type: in vivo, redroot pigweed (Amaranthus retroflexus); conditions: AAH 320 g/ha
Summary of the method: as §1

[6] = system: chickweed; assay: Test Example 4: herbicidal effect by soil treatment (Table 19, symbol P); assay type: in vivo, common chickweed (Stellaria media); conditions: AAH 320 g/ha
Summary of the method: as §1

[7] = system: velvetleaf; assay: Test Example 4: herbicidal effect by soil treatment (Table 19, symbol M); assay type: in vivo, velvetleaf (Abutilon theophrasti); conditions: AAH 320 g/ha
Summary of the method: as §1

[8] = system: windgrass; assay: Test Example 5: herbicidal effect by foliage application, plastic box (Table 20, symbol L); assay type: in vivo, windgrass (Apera spica-venti); conditions: foliage application, 320 g/ha, 3 weeks after application
Summary of the method: (§2)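 Post-emergence foliar test in sterilized diluvial soil. Compound applied as water-diluted emulsion at a predetermined rate to 14-day-old plants; evaluation at three weeks.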

[9] = system: false cleavers; assay: Test Example 4: herbicidal effect by soil treatment (Table 19, symbol Q); assay type: in vivo, false cleavers (Galium spurium); conditions: AAH 320 g/ha
Summary of the method: as §1

[10] = system: Chinese sprangletop; assay: Test Example 3: herbicidal effect by foliage application, Wagner pot (Table 18, symbol D); assay type: in vivo, chinese sprangletop (Leptochloa chinensis); conditions: 320 g/ha
Summary of the method: (§3)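 Plants were sown in alluvial soil held under 0.1–0.5 cm standing water and grown 14 days in a greenhouse at 25–30 °C. An emulsifiable formulation, water-diluted to the set dose, was then sprayed onto the foliage, and effects were scored three weeks later using previously defined criteria.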

[11] = system: Italian ryegrass; assay: Test Example 5: herbicidal effect by foliage application, plastic box (Table 20, symbol K); assay type: in vivo, Italian ryegrass (Lolium multiflorum); conditions: foliage application, 320 g/ha, 3 weeks after application
Summary of the method: as §2

[12] = system: velvetleaf; assay: Test Example 5: herbicidal effect by foliage application, plastic box (Table 20, symbol M); assay type: in vivo, velvetleaf (Abutilon theophrasti); conditions: foliage application, 320 g/ha, 3 weeks after application
Summary of the method: as §2

[13] = system: lambsquarters; assay: Test Example 4: herbicidal effect by soil treatment (Table 19, symbol O); assay type: in vivo, lambsquarters (Chenopodium album); conditions: AAH 320 g/ha
Summary of the method: as §1

[14] = system: barnyard grass; assay: Test Example 3: herbicidal effect by foliage application, Wagner pot (Table 18, symbol H); assay type: in vivo, barnyard grass (Echinochloa crus-galli); conditions: 320 g/ha
Summary of the method: as §3

[15] = system: blackgrass; assay: Test Example 5: herbicidal effect by foliage application, plastic box (Table 20, symbol J); assay type: in vivo, blackgrass (Alopecurus myosuroides); conditions: foliage application, 320 g/ha, 3 weeks after application
Summary of the method: as §2

[16] = system: rice flat sedge; assay: Test Example 3: herbicidal effect by foliage application, Wagner pot (Table 18, symbol E); assay type: in vivo, rice flat sedge (Cyperus iria); conditions: 320 g/ha
Summary of the method: as §3

[17] = system: southern crabgrass; assay: Test Example 5: herbicidal effect by foliage application, plastic box (Table 20, symbol F); assay type: in vivo, southern crabgrass (Digitaria ciliaris); conditions: foliage application, 320 g/ha, 3 weeks after application
Summary of the method: as §2

[18] = system: barnyard grass; assay: Test Example 5: herbicidal effect by foliage application, plastic box (Table 20, symbol H); assay type: in vivo, barnyard grass (Echinochloa crus-galli); conditions: foliage application, 320 g/ha, 3 weeks after application
Summary of the method: as §2

[19] = system: wild oat; assay: Test Example 5: herbicidal effect by foliage application, plastic box (Table 20, symbol I); assay type: in vivo, wild oat (Avena fatua); conditions: foliage application, 320 g/ha, 3 weeks after application
Summary of the method: as §2

[20] = system: green foxtail; assay: Test Example 5: herbicidal effect by foliage application, plastic box (Table 20, symbol G); assay type: in vivo, green foxtail (Setaria viridis); conditions: foliage application, 320 g/ha, 3 weeks after application
Summary of the method: as §2

[21] = system: persian speedwell; assay: Test Example 5: herbicidal effect by foliage application, plastic box (Table 20, symbol R); assay type: in vivo, Persian speedwell (Veronica persica); conditions: foliage application, 320 g/ha, 3 weeks after application
Summary of the method: as §2

[22] = system: wild oat; assay: Test Example 4: herbicidal effect by soil treatment (Table 19, symbol I); assay type: in vivo, wild oat (Avena fatua); conditions: AAH 320 g/ha
Summary of the method: as §1

[23] = system: lambsquarters; assay: Test Example 5: herbicidal effect by foliage application, plastic box (Table 20, symbol O); assay type: in vivo, lambsquarters (Chenopodium album); conditions: foliage application, 320 g/ha, 3 weeks after application
Summary of the method: as §2

[24] = system: barnyard grass; assay: Test Example 4: herbicidal effect by soil treatment (Table 19, symbol H); assay type: in vivo, barnyard grass (Echinochloa crus-galli); conditions: AAH 320 g/ha
Summary of the method: as §1

[25] = system: windgrass; assay: Test Example 4: herbicidal effect by soil treatment (Table 19, symbol L); assay type: in vivo, windgrass (Apera spica-venti); conditions: AAH 320 g/ha
Summary of the method: as §1

[26] = system: persian speedwell; assay: Test Example 4: herbicidal effect by soil treatment (Table 19, symbol R); assay type: in vivo, Persian speedwell (Veronica persica); conditions: AAH 320 g/ha
Summary of the method: as §1

COCCOCOc1c(C)nn(C)c(=O)c1-c1c(-c2ccc(OC(C)C#N)cc2)sc2ccccc12 (racemic) [1-237]
F: southern crabgrass, herbicidal effect rating [1]: 1 (Herbicidal rate of 5% or more and less than 20%) | G: green foxtail, herbicidal effect rating [2]: 4 (Herbicidal rate of 70% or more and less than 90%) | K: Italian ryegrass, herbicidal effect rating [3]: 3 (Herbicidal rate of 40% or more and less than 70%) | J: blackgrass, herbicidal effect rating [4]: 0 (Herbicidal rate of 5% or less (almost no effect)) | N: redroot pigweed, herbicidal effect rating [5]: 5 (Herbicidal rate of 90% or more (almost completely withered)) | P: chickweed, herbicidal effect rating [6]: 3 (Herbicidal rate of 40% or more and less than 70%) | M: velvetleaf, herbicidal effect rating [7]: 1 (Herbicidal rate of 5% or more and less than 20%) | effect on windgrass (L) [8]: 1 (Herbicidal rate of 5% or more and less than 20%) | Q: false cleavers, herbicidal effect rating [9]: 0 (Herbicidal rate of 5% or less (almost no effect)) | herbicidal effect on D (Chinese sprangletop), rating 0-5 [10]: 4 (Herbicidal rate of 70% or more and less than 90%) | effect on Italian ryegrass (K) [11]: 4 (Herbicidal rate of 70% or more and less than 90%) | effect on velvetleaf (M) [12]: 4 (Herbicidal rate of 70% or more and less than 90%) | O: lambsquarters, herbicidal effect rating [13]: 3 (Herbicidal rate of 40% or more and less than 70%) | herbicidal effect on H (barnyard grass), rating 0-5 [14]: 5 (Herbicidal rate of 90% or more (almost completely withered)) | effect on blackgrass (J) [15]: 4 (Herbicidal rate of 70% or more and less than 90%) | herbicidal effect on E (rice flat sedge), rating 0-5 [16]: 4 (Herbicidal rate of 70% or more and less than 90%) | effect on southern crabgrass (F) [17]: 3 (Herbicidal rate of 40% or more and less than 70%) | effect on barnyard grass (H) [18]: 4 (Herbicidal rate of 70% or more and less than 90%) | effect on wild oat (I) [19]: 3 (Herbicidal rate of 40% or more and less than 70%) | effect on green foxtail (G) [20]: 5 (Herbicidal rate of 90% or more (almost completely withered)) | effect on persian speedwell (R) [21]: 5 (Herbicidal rate of 90% or more (almost completely withered)) | I: wild oat, herbicidal effect rating [22]: 0 (Herbicidal rate of 5% or less (almost no effect)) | effect on lambsquarters (O) [23]: 5 (Herbicidal rate of 90% or more (almost completely withered)) | H: barnyard grass, herbicidal effect rating [24]: 0 (Herbicidal rate of 5% or less (almost no effect)) | L: windgrass, herbicidal effect rating [25]: 0 (Herbicidal rate of 5% or less (almost no effect)) | R: persian speedwell, herbicidal effect rating [26]: 5 (Herbicidal rate of 90% or more (almost completely withered))
